# Data published in patent US8815857B2 (Boehringer Ingelheim International GmbH, priority 2011, dated 2014).
# Assays:
# [1] = molecular target: T1, human soluble guanylate cyclase alpha 1 and beta 1 subunits (sGC) stably expressed in Chinese hamster ovary cells (Homo sapiens, UniProt Q02108+Q02153); test: sGC cellular activator assay: cGMP in CHO cells expressing human sGC, preincubated with ODQ; assay type: cell-based; settings: 40 microM ODQ preincubation, 30 min at room temperature, presence or absence of 50% human serum not given, read-out: EC50 nM, Activity of Compounds in Cellular Assay
# T1 construct: expressed in transfected cells; host or cells: Chinese hamster ovary cells, stably transfected
# T1 sequence (Q02108 1-690 partner): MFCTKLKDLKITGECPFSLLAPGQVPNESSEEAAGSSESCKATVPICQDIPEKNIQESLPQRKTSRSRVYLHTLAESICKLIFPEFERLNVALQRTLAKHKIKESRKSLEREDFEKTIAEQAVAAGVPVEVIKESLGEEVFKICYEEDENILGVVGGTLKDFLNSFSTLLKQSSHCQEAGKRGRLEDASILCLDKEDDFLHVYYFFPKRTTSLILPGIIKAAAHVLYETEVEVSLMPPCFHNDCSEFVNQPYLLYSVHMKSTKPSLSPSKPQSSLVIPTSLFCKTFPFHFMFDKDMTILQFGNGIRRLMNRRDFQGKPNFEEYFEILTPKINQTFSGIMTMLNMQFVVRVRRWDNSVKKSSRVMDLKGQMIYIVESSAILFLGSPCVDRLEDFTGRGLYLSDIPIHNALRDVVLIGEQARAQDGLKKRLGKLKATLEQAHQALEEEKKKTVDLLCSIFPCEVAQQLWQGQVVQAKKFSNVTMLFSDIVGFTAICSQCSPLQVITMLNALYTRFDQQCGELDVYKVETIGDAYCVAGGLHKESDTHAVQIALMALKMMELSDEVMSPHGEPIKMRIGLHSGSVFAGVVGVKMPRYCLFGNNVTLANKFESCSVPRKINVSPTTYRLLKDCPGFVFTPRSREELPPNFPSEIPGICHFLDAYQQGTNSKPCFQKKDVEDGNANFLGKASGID
# T1 sequence (Q02153 1-619): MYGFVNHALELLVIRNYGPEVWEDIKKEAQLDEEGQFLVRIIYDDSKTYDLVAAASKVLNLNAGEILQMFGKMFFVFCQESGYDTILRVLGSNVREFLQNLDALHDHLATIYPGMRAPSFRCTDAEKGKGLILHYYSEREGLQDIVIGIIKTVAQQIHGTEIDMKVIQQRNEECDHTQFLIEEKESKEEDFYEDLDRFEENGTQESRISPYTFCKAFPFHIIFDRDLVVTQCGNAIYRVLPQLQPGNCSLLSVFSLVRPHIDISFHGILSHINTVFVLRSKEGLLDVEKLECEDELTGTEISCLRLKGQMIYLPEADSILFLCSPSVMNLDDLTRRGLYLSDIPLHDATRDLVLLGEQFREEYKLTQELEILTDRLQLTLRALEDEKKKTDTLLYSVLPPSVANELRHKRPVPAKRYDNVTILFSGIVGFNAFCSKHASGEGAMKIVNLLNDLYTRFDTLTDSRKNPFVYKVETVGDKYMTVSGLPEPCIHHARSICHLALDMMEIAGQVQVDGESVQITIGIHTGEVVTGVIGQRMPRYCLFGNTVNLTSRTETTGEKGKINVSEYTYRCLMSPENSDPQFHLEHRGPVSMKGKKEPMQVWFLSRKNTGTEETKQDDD
# Experimental: The sGC cellular activator assay is performed in the presence and absence of 50% human serum (HS) using Chinese hamster ovary cells that have been stably transfected to express the human soluble guanylate cyclase alpha 1 and beta 1 subunits (sGC). Cells are preincubated with 40 microM 1H-[1,2,4]oxadiazolo[4,3-a]quinoxalin-1-one (ODQ), an sGC inhibitor, for one hour in buffer containing 0.1% bovine serum albumin and 3-isobutyl-1-methylxanthine (IBMX). Concentration response curves are prepared for test compounds in DMSO. An intermediate dilution of the compounds is performed in either buffer containing IBMX or type AB HS containing IBMX. Diluted compounds are added to cells and they are incubated at room temperature for thirty minutes. cGMP is measured using a CisBio homogeneous time resolved fluorescence kit and the EC50 is calculated for each compound.
# [2] = Assessment of solubility: HT solubility in pION buffer, UV spectrophotometry; settings: kinetic from dmso stock
# [3] = pH 6.8, aqueous buffer, Solubility (pH 6.8), pH 6.8
# [4] = pION system solution buffer, pH 4.5, pH 4.5, aqueous buffer, Solubility (pH 4.5), pH 4.5 buffer, 16-19 h incubation, 1.0% DMSO
# [5] = pION system solution buffer, pH 7.4, pH 7.4, aqueous buffer, Solubility (pH 7.4), pH 7.4 buffer, 16-19 h incubation, 1.0% DMSO
EC50 [1] [nM],"solubility [2, 3] [µg/mL]","solubility [2, 4] [µg/mL]","solubility [2, 5] [µg/mL]",Structure (SMILES)
260,70,5.8,> 53,CNC(=O)CN(C)C(=O)c1ccc(COc2ccc(C)cc2-c2csc(N3C[C@H]4CC[C@@H](C3)[C@H]4C(=O)O)n2)c(C)c1 [Compound 347]
14,71,< 0.1,–,Cc1ccc(OCc2ccc(C(=O)N3CCn4ncnc4C3)cc2C)c(-c2csc(N3C[C@H]4CC[C@@H](C3)[C@H]4C(=O)O)n2)c1 [Compound 327]
57,65,0.24,–,Cc1ccc(OCc2ccc(C(=O)N3CCC(O)CC3)cc2C)c(-c2csc(N3C[C@H]4CC[C@@H](C3)[C@H]4C(=O)O)n2)c1 [Compound 301]
110,59,1.1,–,Cc1ccc(OCc2ccc(C(=O)N3CCn4cnnc4C3)cc2C)c(-c2csc(N3C[C@H]4CC[C@@H](C3)[C@H]4C(=O)O)n2)c1 [Compound 333]
21,33,–,–,Cc1ccc(OCc2ccc(C(=O)N3CC(F)(F)C3)cc2C)c(-c2csc(N3C[C@H]4CC[C@@H](C3)[C@H]4C(=O)O)n2)c1 [Compound 360]
16,0.9,0.72,–,Cc1ccc(OCc2ccc(CN3CCOCC3)cc2OC(F)(F)F)c(-c2csc(N3C[C@H]4CC[C@@H](C3)[C@H]4C(=O)O)n2)c1 [Compound 280]
24,1.6,2.7,–,Cc1ccc(OCc2ccc(CN3C[C@@H](C)O[C@@H](C)C3)cc2C#N)c(-c2csc(N3C[C@H]4CC[C@@H](C3)[C@H]4C(=O)O)n2)c1 [Compound 356]
35,4.6,< 0.1,–,Cc1ccc(OCc2ccc(C(=O)N3CCCCCC3)cc2C)c(-c2csc(N3C[C@H]4CC[C@@H](C3)[C@H]4C(=O)O)n2)c1 [Compound 302]
180,61,1.2,–,Cc1ccc(OCc2ccc(C(=O)N3CCCCC3)cc2C)c(-c2csc(N3C[C@@H]4[C@H](C3)[C@@H]4C(=O)O)n2)c1 [Compound 243]
9.5,16,0.28,–,Cc1ccc(OCc2ccc(CN3CCN(C)C(=O)C3)cc2C)c(-c2csc(N3C[C@H]4CC[C@@H](C3)[C@@]4(C)C(=O)O)n2)c1 [Compound 269]
45,1.9,32,41,Cc1ccc(OCc2ccc(C(C)N3CCOCC3)cc2C)c(-c2csc(N3CC4CCC(C3)C4C(=O)O)n2)c1 (centres unmarked) [Compound 276]
36,5.8,12,–,Cc1ccc(OCc2ccc(CN3CCOCC3C)cc2C#N)c(-c2csc(N3C[C@H]4CC[C@@H](C3)[C@H]4C(=O)O)n2)c1 (some centres unmarked) [Compound 359]
42,70,0.48,–,"Cc1ccc(OCc2ccc(C(=O)N3CCOCC3)cc2C#N)c(-c2csc(N3C[C@H]4CC[C@@H](C3)[C@H]4C(=O)O)n2)c1 [Compound 266, 3-(4-{2-[2-cyano-4-(morpholine-4-carbonyl)-benzyloxy]-5-methyl-phenyl}-thiazole-2-yl)-3-aza-bicyclo[3.2.1]octane-8(syn)-carboxylic acid]"
180,65,2.6,–,Cc1ccc(OCc2ccc(CN3CCS(=O)(=O)CC3)cc2C)c(-c2csc(N3C[C@@H]4[C@H](C3)[C@@H]4C(=O)O)n2)c1 [Compound 244]
20,41,< 0.1,–,Cc1ccc(OCc2ccc(C(=O)N3CCC(F)(F)CC3)cc2C)c(-c2csc(N3C[C@H]4CC[C@@H](C3)[C@H]4C(=O)O)n2)c1 [Compound 317]
7.3,70,< 0.1,38,Cc1ccc(OCc2ccc(C(=O)N3CCOCC3)cc2C)c(-c2csc(N3C[C@H]4CC[C@@H](C3)[C@H]4C(=O)O)n2)c1 [Compound 268]
21,50,0.13,5.2,Cc1ccc(OCc2ccc(C(=O)N(C)CC3CCCO3)cc2C)c(-c2csc(N3C[C@H]4CC[C@@H](C3)[C@H]4C(=O)O)n2)c1 (some centres unmarked) [Compound 306]
110,3.3,< 0.1,30,Cc1ccc(OCc2ccc(CN3CCS(=O)(=O)CC3)cc2C)c(-c2csc(N3CC[C@]4(C(=O)O)C[C@@H]4C3)n2)c1 [Compound 222]
44,26,46,> 54,Cc1ccc(OCc2ccc(CN3C[C@@H]4C[C@H]3CO4)cc2C#N)c(-c2csc(N3C[C@H]4CC[C@@H](C3)[C@H]4C(=O)O)n2)c1 [Compound 232]
110,63,1.1,–,Cc1ccc(OCc2ccc(C(=O)N3CC[C@@H](O)C3)cc2C)c(-c2csc(N3C[C@H]4CC[C@@H](C3)[C@H]4C(=O)O)n2)c1 [Compound 341]
39,5.2,4.9,–,Cc1ccc(OCc2ccc(CN3CCOC(C)C3)cc2C#N)c(-c2csc(N3C[C@H]4CC[C@@H](C3)[C@H]4C(=O)O)n2)c1 (some centres unmarked) [Compound 238]
9.7,29,< 0.1,–,CCc1cc(C(=O)N2CCOCC2)ccc1COc1ccc(C)cc1-c1csc(N2C[C@H]3CC[C@@H](C2)[C@H]3C(=O)O)n1 [Compound 288]
59,66,0.32,–,CCN(CCO)C(=O)c1ccc(COc2ccc(C)cc2-c2csc(N3C[C@H]4CC[C@@H](C3)[C@H]4C(=O)O)n2)c(C)c1 [Compound 298]
24,37,0.15,–,CCN(CCC#N)C(=O)c1ccc(COc2ccc(C)cc2-c2csc(N3C[C@H]4CC[C@@H](C3)[C@H]4C(=O)O)n2)c(C)c1 [Compound 307]
14,1.5,< 0.1,–,Cc1ccc(OCc2ccc(C(=O)N3CCCC(C#N)C3)cc2C)c(-c2csc(N3C[C@H]4CC[C@@H](C3)[C@H]4C(=O)O)n2)c1 (some centres unmarked) [Compound 337]
500,82,0.69,–,Cc1ccc(OCc2ccc(C(=O)N3CCOCC3)cc2C)c(-c2csc(N3CC4(CC4C(=O)O)C3)n2)c1 (centres unmarked) [Compound 256]
590,14,< 0.1,–,Cc1ccc(OCc2ccc(C(=O)N3CCCCC3)cc2C)c(-c2csc(N3CC(C4(C(=O)O)CC4)C3)n2)c1 [Compound 260]
39,0.89,< 0.1,–,Cc1ccc(OCc2c(C)cc(C(=O)N3CCCCC3)cc2C)c(-c2csc(N3C[C@H]4CC[C@@H](C3)[C@H]4C(=O)O)n2)c1 [Compound 282]
390,0.17,< 0.1,–,"Cc1ccc(OCc2ccc(C(=O)N3CCCCC3)cc2C)c(-c2csc(N3C[C@H]4CC[C@@H](C3)[C@@]4(O)C(=O)O)n2)c1 [Compound 216, 8-hydroxy-3-(4-{5-methyl-2-[2-methyl-4-(piperidine-1-carbonyl)-benzyloxy]-phenyl}-thiazol-2-yl)-3-aza-bicyclo[3.2.1]octane-8(syn)-carboxylic acid]"
